The test system of data set [1] is HIV-1 NL4-3 (wild-type HIV-1 viral strain). Kind of data set: Anti-HIV activity, luciferase single-round infection of TZM-bl cells, NL4-3. The class given is cell-based. As to conditions: Human immunodeficiency virus 1, NL43, wild-type HIV-1 NL4-3. How it is done:
(§1) The target compound WB3 was evaluated its activity against HIV-1 NL4-3, HIV-1 mutant strains GH9 (K101P+K103N+V108I), RV1 (K101E+Y181V), RV2 (K101E+Y181C+G190A), RV3 (K101E+Y181C+E138K), RV4 (L100I+M230I) and RV5 (M230L). Rilpivirine (RPV) was selected as control drug.
(§2) Inhibition of HIV-1 infection was measured as reduction in luciferase gene expression after a single round of virus infection of TZM-bl cells. Briefly, 200 TCID50 of virus (NL4-3, GH9, RV-1, RV-2, RV-3, RV-4 and RV-5) was used to infect TZM-bl cells in the presence of various concentrations of compounds. Two days after infection, the culture medium was removed from each well and 100 μL of Bright Glo reagent (Promega, Luis Obispo, Calif.) was added to the cells for measurement of luminescence with a Victor 2 luminometer. […] The cytotoxicity of compounds was determined using a colorimetric 2,3-bis-(2-methoxy-4-nitro-5-sulfophenyl)-2H-tetrazolium-5-carboxanilide (XTT) assay. An amount of 100 μL of the test compounds at graded concentrations was added to equal volumes of cells (5×10^5/mL) in wells of a 96-well plate. Incubation at 37° C. for four days, then 50 μL of XTT solution (1 mg/mL) containing 0.02 μM phenazine methosulfate (PMS) was added. After four hours, the absorbance at 450 nm was measured with an ELISA reader. The CC50 values were calculated using the CalsuSyn computer program as described above.

Data set [2] concerns HIV-1 mutant strain GH9 (K101P+K103N+V108I). Kind of data set: Anti-HIV activity, luciferase single-round infection of TZM-bl cells, GH9. The class given is cell-based. As to conditions: for EC50: Human immunodeficiency virus 1, TZM-bl, read-out: EC50 GH9. How it is done:
as §1, §2

Data set [3] deals with HIV-1 mutant strain RV1 (K101E+Y181V). Kind of data set: Anti-HIV activity, luciferase single-round infection of TZM-bl cells, RV-1. It is filed as cell-based. The note with it: Human immunodeficiency virus 1, TZM-bl, read-out: EC50 RV-1. How it is done: as §1, §2
The subject of data set [4] is HIV-1 mutant strain RV2 (K101E+Y181C+G190A). Kind of data set: Anti-HIV activity, luciferase single-round infection of TZM-bl cells, RV-2. The class given is cell-based. As to conditions: Human immunodeficiency virus 1, TZM-bl, read-out: EC50 RV-2. How it is done:
as §1, §2

For data set [5], the system named is HIV-1 mutant strain RV3 (K101E+Y181C+E138K). Kind of data set: Anti-HIV activity, luciferase single-round infection of TZM-bl cells, RV-3. It is filed as cell-based. As to conditions: Human immunodeficiency virus 1, TZM-bl, read-out: EC50 RV-3. How it is done:
as §1, §2

The test system of data set [6] is HIV-1 mutant strain RV4 (L100I+M230I). Kind of data set: Anti-HIV activity, luciferase single-round infection of TZM-bl cells, RV-4. It is filed as cell-based. As to conditions: Human immunodeficiency virus 1, TZM-bl, read-out: EC50 RV-4. How it is done: as §1, §2
Data set [7] concerns HIV-1 mutant strain RV5 (M230L). Kind of data set: Anti-HIV activity, luciferase single-round infection of TZM-bl cells, RV-5. The class given is cell-based. The note with it: Human immunodeficiency virus 1, TZM-bl, read-out: EC50 RV-5. How it is done:
as §1, §2

Another data set can be described thus: Cytotoxicity, XTT assay. The class given is cell-based. The note with it: human, mock-infected TZM-bl cells. How it is done: as §2
In general terms: Formazan colour is commonly taken as a measure of viable cells.

A short description of data set [8]: Pharmacokinetics by single iv and po administration in Wistar rats. The class given is in vivo. How it is done:
Then, WB3 was evaluated its pharmacokinetics profiles by single iv and po administration in Wistar rats. […] These favorable PK results are sufficient to support the ability of WB3 to become an orally bioavailable NNRTIs drug candidate.
All the samples were then centrifuged at 8000 rpm for 8 min to separate plasma, which was stored at −78° C. until analysis. […] Standard curves for WB3 in blood were generated by the addition of various concentrations of WB3 together with internal standard to blank plasma.
The plasma pharmacokinetic data were analyzed by using the […] of DAS 2.0 pharmacokinetic program. The main pharmacokinetic parameters (Cmax, AUC, Tmax, T1/2, and CL) were calculated.

The EC50 is the concentration giving half of the maximal effect. Broadly, the CC50 is the concentration giving 50% cytotoxicity. Low readings indicate greater toxicity to the cells, high ones lower toxicity to the cells. As usually defined, the Cmax is the highest concentration seen after dosing.

As for `Cc1cc(/C=C/C#N)cc(C)c1Nc1ccnc(Nc2ccc(C#N)cc2)n1` [RPV, Rilpivirine, reference compound], the EC50 in data set [1] is 0.96 ± 0.3 nM; in data set [2], above 273 nM; in data set [3] it was 45.6 ± 12.6 nM; in data set [4], 24.3 ± 5.73 nM; in [5], 88.1 ± 37.4 nM; in data set [6], 9.82 ± 2.35 nM. Also, the half-maximal effective concentration (EC50) in [7] worked out at 10.4 ± 3.27 nM. The molecule further had a CC50 at 4 days in the data set “Cytotoxicity, XTT assay” above 341 nM.

For the molecule `Cc1cc(/C=C/C#N)cc(C)c1Oc1nc(NC2CCN(Cc3ccc(S(C)(=O)=O)cc3)CC2)nc2ncccc12` [WB3], the 50% effective concentration (EC50) in data set [1] is 1.16 nM; in data set [2] it was 1.37 nM; in data set [3], 18.3 ± 5.8 nM; in data set [4], 29 ± 10.9 nM; in data set [5] it was above 106 nM; in data set [6] it was 9.32 ± 2.46 nM. For the same molecule, the half-maximal effective concentration (EC50) in data set [7] was 6.15 ± 2.29 nM. Further, the “fold potency versus rilpivirine against GH9” value in [2] (EC50 ratio to rilpivirine, GH9 strain) was “up to 200 fold”. In the data set “Cytotoxicity, XTT assay”, this molecule displayed a CC50 at 4 days above 44 nM. Also, the CL in data set [8] (iv 2 mg/kg (Table 2)) came to 20.6 ± 4.50 mL. Also, the Cmax in data set [8] (male, rat, plasma, iv 2 mg/kg) was 1490 ng/mL.
